{"source": "paper PMC11054132", "about": "“Neuroprotective Effects of Chemical Constituents of Leaves of Euonymus hamiltonianus Wall” (Plants, 2024)", "key": {"[1]": {"tested_on": "NO production in LPS-activated BV-2 microglial cells", "assay": "NO production (Griess reaction) in LPS-stimulated BV-2 microglial cells", "type": "cell-based, mouse", "conditions": "for IC50: pretreated 1 h, 100 ng/mL LPS (footnote 24 h; text 12 h), means ± SDs (n = 3); for Inhibitory effect on NO production (in words): LPS-stimulated BV-2 microglial cells", "protocol": "The anti-inflammatory effects of the fourteen compounds (1–14) isolated from E. hamiltonianus were evaluated in activated BV-2 microglial cells by the production of NO and proinflammatory cytokines. […] […] The compounds were continuously assessed to determine whether they suppressed the expression of iNOS and COX-2 in LPS-stimulated BV-2 microglial cells. The cells were stimulated with LPS in the presence of these compounds at various concentrations, and the expression levels of iNOS and COX-2 were determined by Western blotting. […] Thus, compound 3 may be considered a potential anti-inflammatory agent.\nFor the Aβ-Hela-APPsw model, Hela cells were stably transfected with an APP carrying the Swedish mutation (APPsw) using BioT (Bioland Scientific LLC, Paramount, CA, USA) according to the manufacturer’s instructions, which was provided by Prof. Tae-Wan Kim (Department of Pathology, Columbia University of Medical Center, New York, NY 10032, USA). APPsw-transfected HeLa cells were grown in DMEM supplemented with 10% fetal bovine serum (FBS; Thermo Fisher Scientific, Lafayette, CA, USA), 1% penicillin/streptomycin (Thermo Fisher Scientific, Lafayette, CA, USA), 260 μg/mL Zeocin, and 400 μg/mL G418. The cells were maintained at 37 °C under a humidified atmosphere of 5% CO2. The stock sample solution was dissolved in DMSO and kept at −20 °C and diluted to the final concentration in fresh medium before each experiment. […] The EZ-Cytox kit (DAEILLAB, Cheongwon, Republic of Korea) was applied to detect the cell viability, following the manufacturer’s instructions, and measurements were taken by a microplate reader (BIO-TEK® Dower-Wave; BioTek, Winooski, VT, USA) under absorbance at 450 nm. The results were presented as the percentage of MTT reduction, compared with the control group as 100%. For the LPS-induced microglia model, the BV-2 mouse microglia cell line was provided by Prof. Lee Sung Jung’s research team in the College of Medicine, Seoul National University, and was cultured in DMEM-F12 with 5% FBS and 1% penicillin/streptomycin at 37 °C under a humidified atmosphere containing 5% CO2. And the cell viability assay was performed using the Aβ-Hela-APPsw model.\n[…] The media were collected and centrifuged at 13,000 rpm for the removal of dead cells. The supernatants were collected and mixed with an equal volume (50 μL) of Griess reagents (1% sulfanilamide and N-(1-naphthyl) ethylenediamine dihydrochloride in 2.5% H3PO4) for 5 min at room temperature, and the Nitric Oxide concentration was measured at 540 nm using a microplate reader and compared with the sodium nitrite standard curve."}, "[2]": {"assay": "Cytotoxicity (MTT assay) in BV-2 microglial cells", "type": "cell-based", "conditions": "mouse; BV-2 microglial cells, MTT assay; read-out: IC50 Value (µM) Cytotoxicity"}, "iNOS": {"tested_on": "iNOS", "assay": "Western blot of LPS-induced iNOS expression in BV-2 microglial cells", "type": "cell-based, mouse", "conditions": "LPS-stimulated BV-2 microglial cells, various concentrations (1.0, 2.0, 4.0 µM)", "protocol": "(§1) The anti-inflammatory effects of the fourteen compounds (1–14) isolated from E. hamiltonianus were evaluated in activated BV-2 microglial cells by the production of NO and proinflammatory cytokines. BV-2 microglial cells were stimulated with 0.1 µg/mL LPS for 12 h in the presence of the compounds at various concentrations, and the levels of NO in the culture supernatants were measured using Griess reactions. […] The compounds were continuously assessed to determine whether they suppressed the expression of iNOS and COX-2 in LPS-stimulated BV-2 microglial cells. The cells were stimulated with LPS in the presence of these compounds at various concentrations, and the expression levels of iNOS and COX-2 were determined by Western blotting. […] Thus, compound 3 may be considered a potential anti-inflammatory agent.\nThe total protein samples (10 μg) were loaded in sodium dodecyl sulfate polyacrylamide gel electrophoresis (SDS–PAGE) gels with 10% acrylamide/bis and transferred to polyvinylidene difluoride membranes (Millipore, Burlington, MA, USA). Then, the membranes were blocked with 5% silky milk dissolved in TBST (Tris Buffered saline Tween) for 1 h under room temperature and incubated overnight at 4 °C with specific primary antibodies (1:1000). After being washed with TBST, the membranes were incubated with secondary HRP-conjugated IgG (1:2000) at room temperature for 1 h and visualized using enhanced chemiluminescence (ECL) reagents (Thermo Fisher Scientific, Lafayette, CA, USA). Densitometry analysis of the bands was performed with the fusion solo system (Vilber, Paris, France). The band densities were determined as the intensities of protein by TotalLab TL120 software v2009 (TotalLab, Newcastle, UK)."}, "COX-2": {"tested_on": "COX-2", "assay": "Western blot of LPS-induced COX-2 expression in BV-2 microglial cells", "type": "cell-based, mouse", "conditions": "LPS-stimulated BV-2 microglial cells, various concentrations (1.0, 2.0, 4.0 µM)", "protocol": "as §1\nThe total protein samples (10 μg) were loaded in sodium dodecyl sulfate polyacrylamide gel electrophoresis (SDS–PAGE) gels with 10% acrylamide/bis and transferred to polyvinylidene difluoride membranes (Millipore, Burlington, MA, USA). Then, the membranes were blocked with 5% silky milk dissolved in TBST (Tris Buffered saline Tween) for 1 h under room temperature and incubated overnight at 4 °C with specific primary antibodies (1:1000). […] The band densities were determined as the intensities of protein by TotalLab TL120 software v2009 (TotalLab, Newcastle, UK)."}, "[3]": {"conditions": "Mus musculus, BV-2, BV-2 microglial cells"}}, "note": "“Also recorded” adds a separate entry of the source."}
{"smiles": "O=c1c(O[C@@H]2O[C@H](CO)[C@H](O)[C@H](O)[C@H]2O)c(-c2ccc(O)c(O)c2)oc2cc(O)cc(O)c12", "note": "[Compound 3, quercetin-3-O-β-D-galactopyranoside]", "values": [{"measurement": "IC50", "setting": "[1]; BV-2 microglial cells", "result": "16.3 ± 2.94", "unit": "µM"}, {"measurement": "Inhibitory effect on NO production (in words)", "setting": "[1]", "result": "effectively downregulated; also recorded: good inhibitory effects"}, {"measurement": "IC50", "setting": "[1]; [3]", "result": 14.4, "unit": "µM"}, {"measurement": "IC50 at 12 h", "setting": "[2]", "result": "> 100", "unit": "µM"}, {"measurement": "LPS-induced iNOS protein expression (in words)", "setting": "iNOS", "result": "suppressed; also recorded: most potent inhibitory activity; also recorded: effectively downregulated"}, {"measurement": "LPS-induced COX-2 protein expression (in words)", "setting": "COX-2", "result": "suppressed; also recorded: most potent inhibitory activity"}]}
{"smiles": "O=c1c(O[C@@H]2O[C@H](CO)[C@@H](O)[C@H](O)[C@H]2O)c(-c2ccc(O)c(O)c2)oc2cc(O[C@@H]3O[C@H](CO)[C@@H](O)[C@H](O)[C@H]3O)cc(O)c12", "note": "[Compound 4, quercetin-3,7-di-O-β-D-glucopyranoside]", "values": [{"measurement": "Inhibitory effect on NO production (in words)", "setting": "[1]", "result": "effectively downregulated; also recorded: good inhibitory effects"}, {"measurement": "IC50", "setting": "[1]; [3]", "result": "14.4 ± 8.68", "unit": "µM"}, {"measurement": "IC50 at 12 h", "setting": "[2]", "result": "> 100", "unit": "µM"}, {"measurement": "LPS-induced iNOS protein expression (in words)", "setting": "iNOS", "result": "suppressed; also recorded: effectively downregulated"}, {"measurement": "LPS-induced COX-2 protein expression (in words)", "setting": "COX-2", "result": "suppressed"}]}
